US5914336A, “Method of controlling the serum solubility of orally administered torasemide and composition relating thereto” (Boehringer Mannheim GmbH, priority 1998, dated 1999)
≈ marks a conversion by molar mass, not a printed value. Where “and” joins values, the source holds several entries; their conditions need not be identical. Equal values may be shown once. Entries after “also recorded” stand apart in the source; their conditions may differ. Read-outs that look alike come from different tables or passages of the source.

Key:
[1] = in vivo; cited from earlier work
[2] = test system: sodium-potassium-2 chloride transport mechanism in the ascending limb of the loop of Henle; details: loop diuretic; cited from earlier work
[3] = Solubility at 20° C. at pH 4.90; assay type: physicochemical
Protocol: Solubility (mmol L^-1) at 20° C. at pH 4.90

[4] = Dissolution testing of capsules containing 150 mg torasemide in water; assay type: physicochemical; details: for % dissolved: 500 ml, 37° C., 150 rpm, 150 mg capsule
Protocol: FIG. 4 is a plot similar to that of FIG. 3, but in water rather than citrate buffer; FIG. 6 is a plot similar to that of FIG. 5, but in water. In this and the following examples, microfine torasemide of modification I and microfine torasemide of modification III were blended together. A blend was prepared of 75 wt. % of modification III and 25 wt. % of modification I, and a similar blend was prepared of 25 wt. % of modification III and 75 wt. % of modification I. These blends were incorporated into capsules containing 150 mg of total torasemide, and pure modification I and pure modification III 150 mg. capsules were also prepared. The capsules were subjected to dissolution testing in water, and in a citrate buffer (pH 4.5), at 37° C. under stirring.

[5] = Water content after storing in relative humidity of 92% at 25° C.; assay type: physicochemical; details: 92% relative humidity, Mod. III value depending on particle size
Protocol: |Water content (%) after storing in relative humidity |of 92% at 25° C. on particle size

[6] = Dissolution testing of capsules containing 150 mg torasemide in citrate buffer (pH 4.5); assay type: physicochemical; details: for % dissolved: citrate buffer pH 4.5, 500 ml, 37° C., 150 rpm, 150 mg capsule; for 8 hr solubility, %: citrate, pH 4.5, 8 hr
Protocol: A blend was prepared of 75 wt. % of modification III and 25 wt. % of modification I, and a similar blend was prepared of 25 wt. % of modification III and 75 wt. % of modification I. These blends were incorporated into capsules containing 150 mg of total torasemide, and pure modification I and pure modification III 150 mg. capsules were also prepared. The capsules were subjected to dissolution testing in water, and in a citrate buffer (pH 4.5), at 37° C. under stirring.

[7] = Solubility of modification III versus modification I above pH 3; assay type: physicochemical; details: above pH 3 and especially at a pH of approximately 7.4
[8] = Heats of fusion, transition and solution of crystal forms; assay type: physicochemical; details: for Heat of fusion ± 95%-c.i.: heating rate 5K min^-1; for Heat of solution: in I-butanol at 20° C.
[9] = Serum concentration of torasemide after oral administration to rats; assay type: in vivo, rat; details: male rats (FIG. 1)
Description: FIG. 1 is a plot of serum concentration levels in male rats of torasemide of modification I and modification III versus time after oral administration;
FIG. 2 is similar to FIG. 1, but reflects the serum concentrations in female rats;

[10] = Stability / rearrangement of crystal modification; assay type: physicochemical
[11] = earlier patents/knowledge, storage of pure active material or in tablets, cited from earlier work

SMILES	Solubility [3]	% dissolved ([4]; 0 minutes)	% dissolved ([4]; 15 minutes)	% dissolved ([4]; 30 minutes)	% dissolved ([4]; 45 minutes)	% dissolved ([4]; 60 minutes)	% dissolved ([4]; 120 minutes)	% dissolved ([4]; 180 minutes)	% dissolved ([4]; 240 minutes)	% dissolved ([4]; 300 minutes)	% dissolved ([4]; 480 minutes)	Water content after storing in relative humidity of 92% at 25° C. [5]	% dissolved ([6]; 0 minutes)	% dissolved ([6]; 15 minutes)	% dissolved ([6]; 30 minutes)	% dissolved ([6]; 45 minutes)	% dissolved ([6]; 60 minutes)	% dissolved ([6]; 120 minutes)	% dissolved ([6]; 180 minutes)	% dissolved ([6]; 240 minutes)	also measured
Cc1cccc(Nc2ccncc2S(=O)(=O)NC(=O)NC(C)C)c1 [Torasemide, 1-isopropyl-3-[(4-m-toluidino-3pyridyl)-sulphonyl)-urea]																					diuresis compared with other standard loop diuretics [1]: less intense initial diuresis and a sustained duration of action; mechanism of action [2]: blocks the sodium-potassium-2 chloride transport mechanism in the ascending limb of the loop of Henle
Cc1cccc(Nc2ccncc2S(=O)(=O)NC(=O)NC(C)C)c1 [Mod. III, 1-isopropyl-3-[(4-m-toluidino-3pyridyl)-sulphonyl)-urea]	930 µM (≈ 324 µg/mL)	0%	62,8%	96,6%	100,4%	101,3%	102,1%	102,5%	102,8%	102,2% and 103,2%	103,3%	1.2%	0%	63,3%	91%	97,4%	99,5%	101%	101,5%	101,6%	8 hr solubility, % ([4]; listed as Modification III): 103.3%; % dissolved ([6]; 300 minutes): 101,8%; % dissolved ([6]; 480 minutes): 102,5%; 8 hr solubility, % ([6]; listed as Modification III): 102.5%; solubility versus modification I [7]: significantly greater solubility than modification I; Heat of transition ± 95%-c.i. ([8]; at about 159° C., the difference of the heats of fusion): -1.96 ± 0.502 kcal/mol; Heat of fusion ± 95%-c.i. [8]: 7.15 ± 0.22 kcal/mol; Heat of solution [8]: 7.12 kcal/mol; serum concentration relative to modification I ([9]; 20 minutes after oral administration): more than twice the serum concentration as modification I; serum concentration relative to modification I ([9]; 40 minutes after oral administration): almost twice the serum concentration as modification I; stability of modification [10]: stable
Cc1cccc(Nc2ccncc2S(=O)(=O)NC(=O)NC(C)C)c1 [Mod. I, 1-isopropyl-3-[(4-m-toluidino-3pyridyl)-sulphonyl)-urea]	340 µM (≈ 118 µg/mL)	0%	30,6%	51,3%	58,5%	61,6%	64,9%	65,9%	66,3%	66,8%	67,3%	0.2%	0%	13,4%	30,3%	38,3%	43,5%	54,9%	61%	63,2%	8 hr solubility, % ([4]; listed as Modification I): 67.3%; stability / rearrangement of modification ([11]; listed as modification I): stable in tablets and did not rearrange again back into modification II; % dissolved ([6]; 300 minutes): 63,1%; % dissolved ([6]; 480 minutes): 63,9%; 8 hr solubility, % ([6]; listed as Modification I): 63.9%; Heat of fusion ± 95%-c.i. [8]: 8.89 ± 0.454 kcal/mol; Heat of solution [8]: 8.63 kcal/mol
Cc1cccc(Nc2ccncc2S(=O)(=O)NC(=O)NC(C)C)c1 [Modification II, 1-isopropyl-3-[(4-m-toluidino-3pyridyl)-sulphonyl)-urea]																					stability / rearrangement of modification [11]: relatively unstable; also recorded: in the case of storage of the pure active material, does not change; also recorded: rearranges more or less quickly into modification I
